According to patent US20170114049A1, “2,5-DISUBSTITUTED CYCLOPENTANE CARBOXYLIC ACIDS FOR THE TREATMENT OF RESPIRATORY TRACT DISEASES” (BAYER PHARMA AKTIENGESELLSCHAFT, priority 2014, published 2017):
Where two headings read alike, the source gives them in different places.

Experiments:
[1] = target: T1, human macrophage elastase (HME/hMMP-12) (Homo sapiens, UniProt P39900); test: In vitro HME inhibition test (standard or high-sensitivity); assay type: biochemical
T1 construct: 0.5 nM HME; purchased R&D Systems 917-MP
Protocol: The potency of the compounds according to the invention with respect to HME (MMP-12) is determined in an in vitro inhibition test. The HME-mediated amidolytic cleavage of a suitable peptide substrate leads to an increase in fluorescent light therein. The signal intensity of the fluorescent light is directly proportional to the enzyme activity. The active concentration of a test compound at which half the enzyme is inhibited (50% signal intensity of the fluorescent light) is reported as the IC50 value.
In a 384 hole microtiter plate, in a total test volume of 41 μl, the test buffer (0.1 M HEPES pH 7.4, 0.15 M NaCl, 0.03 M CaCl2, 0.004 mM ZnCl2, 0.02 M EDTA, 0.005% Brij®), the enzyme (0.5 nM HME; from R&D Systems, 917-MP, autocatalytic activation according to the manufacturer's instructions) and the intramolecularly quenched substrate [5 μM Mca-Pro-Leu-Gly-Leu-Glu-Glu-Ala-Dap(Dnp)-NH2; Bachem, M-2670] are incubated in the absence and presence of the test substance (as a solution in DMSO) at 37° C. for two hours. The fluorescence intensity of the test mixtures is measured (excitation […], emission 393 nm). The IC50 values are ascertained by plotting the fluorescent light intensity against the active ingredient concentration.
In this case, an enzyme concentration ten times lower is used (final concentration, for example, 0.05 nM) in order to achieve an elevated test sensitivity. The incubation period chosen for the test is correspondingly longer (for example 16 hours).

MMP-14 = target: T2, MMP-14 (Homo sapiens, UniProt P50281); test: In vitro MMP-14 inhibition test; assay type: biochemical
T2 construct: purchased R&D Systems 918-MP
Excerpt: The MMP-mediated amidolytic cleavage of a suitable peptide substrate leads to an increase in fluorescent light here too. The signal intensity of the fluorescent light is directly proportional to the enzyme activity. The active concentration of a test compound at which half the enzyme is inhibited (50% signal intensity of the fluorescent light) is reported as the […].
Recombinant MMP-14 (from R&D Systems, 918-MP) is enzymatically activated in accordance with the manufacturer's instructions using recombinant furin (from R&D Systems, 1503-SE). 1 μl of the test compound to be analysed (as a solution in DMSO, suitable concentrations e.g. 1 nM to 30 μM) is pipetted into 24 μl of activated enzyme (final concentration e.g. 0.5 nM) in reaction buffer (50 mM Tris/HCl pH 7.5, 10 mM CaCl2, 150 mM NaCl, 0.05% Brij®-35) in a white 384-hole microtiter plate (MTP). The enzymatic reaction is started by adding the intramolecularly quenched Mca-Lys-Pro-Leu-Gly-Leu-Dpa(Dnp)-Ala-Arg-NH2 substrate (final concentration, for example, 5 μM; R&D Systems, ES-010), so as to result in a total test volume of 50 μl. The course of the MMP-14 reaction is measured by measuring the fluorescence intensity (excitation 320 nm, emission 410 nm) over a suitable period of time (for example over 120 min at a temperature of 32° C.).

rat hepatocytes = test: Hepatocyte assay for determination of metabolic stability; conditions: after incubation with rat hepatocytes
Protocol: Seven samples from the incubation solution are taken for the LC-MS analysis within a fixed time pattern, in order to determine the half-life (i.e. the degradation) of the particular compound. This half life is used to calculate various “Clearance” parameters (CL) and “Fmax” values (see below).
The CL and Fmax values are a measure of the phase 1 and phase 2 metabolism of the compounds in the hepatocytes. In order to minimize the influence of the organic solvent on the enzymes in the incubation batches, the concentration thereof is generally limited to 1% (acetonitrile) or 0.1% (DMSO).
For all species and breeds, a hepatocyte cell count in the liver of 1.1*10^8 cells/g of liver is expected.
The parameters calculated and the meanings thereof are: • Fmax well-stirred [%] maximum possible bioavailability after oral administration • Calculation: (1-CLblood well-stirred/QH)*100 • CLblood well-stirred [L/(h*kg)] calculated blood clearance (well-stirred model) • Calculation: (QH*CLintrinsic)/(QH+CL′intrinsic) • CL′intrinsic[ml/(min*kg)] maximum ability of the liver (of the hepatocytes) to metabolize a compound (assuming that the liver blood flow is not rate-limiting) • Calculation: CLintrinsic, apparent* species-specific hepatocyte count [1.1* 10^8/g liver]*species-specific liver weight [g/kg] • CL′intrinsic, apparent[ml/(min*mg)] normalizes the elimination constant by dividing it by the hepatocyte cell count x used (x*10^6/ml) • Calculation: kcl[1/min]/(cell count [x*10^6]/incubation volume [ml]) • (QH=species-specific liver blood flow).

[2] = absence of serum albumin (BSA), read-out: HME IC50 (−BSA)
[3] = standard or high-sensitivity HME inhibition test, read-out: HME/hMMP-12 IC50

T1 sequence (P39900 106-470): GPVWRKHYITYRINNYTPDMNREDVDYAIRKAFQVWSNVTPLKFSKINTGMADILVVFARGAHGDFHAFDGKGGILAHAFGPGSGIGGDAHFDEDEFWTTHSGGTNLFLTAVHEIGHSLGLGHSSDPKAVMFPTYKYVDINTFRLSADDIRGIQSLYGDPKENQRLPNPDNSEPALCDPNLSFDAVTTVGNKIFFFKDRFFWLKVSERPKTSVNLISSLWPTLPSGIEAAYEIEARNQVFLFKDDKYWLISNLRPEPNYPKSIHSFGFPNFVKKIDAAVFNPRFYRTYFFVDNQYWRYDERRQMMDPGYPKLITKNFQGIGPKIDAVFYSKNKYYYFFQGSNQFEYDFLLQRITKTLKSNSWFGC

| Compound | IC50 [1, 2] [nM] | IC50 [1, 3] [nM] | IC50 (MMP-14) [nM] | CLblood (calculated blood clearance, well-stirred) (rat hepatocytes) [mL/min/kg] | Fmax (maximum possible bioavailability after oral administration, well-stirred) (rat hepatocytes) [%] |
| --- | --- | --- | --- | --- | --- |
| O=C(O)[C@H]1[C@H](Cn2nnc3ccccc3c2=O)CC[C@@H]1C(=O)c1ccc(OCC2CCOCC2)cc1 (stereo in doubt) [Example 1, (+/−)-(1RS,2SR,5RS)-2-[(4-Oxo-1,2,3-benzotriazin-3(4H)-yl)methyl]-5-[4-(tetrahydro-2H-pyran-4-ylmethoxy)benzoyl]cyclopentanecarboxylic acid] | 0.04 | 0.04 | 160 | 17 | 75.7 |
| O=C(O)[C@@H]1[C@@H](Cn2nnc3ccc(C(F)(F)F)cc3c2=O)CC[C@H]1C(=O)c1ccc(SCC2CCOCC2)cc1 (single isomer, unassigned) [Example 15, (+)-(1RS,2SR,5RS)-2-{[4-Oxo-6-(trifluoromethyl)-1,2,3-benzotriazin-3(4H)-yl]methyl}-5-{4-[(tetrahydro-2H-pyran-4-ylmethyl)sulphanyl]benzoyl}cyclopentanecarboxylic acid] | 0.026 | 0.026 | 150 |  |  |
| O=C(O)[C@H]1[C@H](Cn2nnc3ccc(C(F)(F)F)cc3c2=O)CC[C@@H]1C(=O)c1ccc(OCCC2CCOCC2)cc1 (stereo in doubt) [Example 10, (+/−)-(1RS ,2S R,5RS)-2-{[4-Oxo-6-(trifluoromethyl)-1,2,3-benzotriazin-3(4H)-yl]methyl}-5-{4-[2-(tetrahydro-2H-pyran-4-yl)ethoxy]benzoyl}cyclopentanecarboxylic acid] |  | 0.021 | 600 |  |  |
| O=C(O)[C@@H]1[C@@H](Cn2nnc3ccccc3c2=O)CC[C@H]1C(=O)c1ccc(OCC2CCOCC2)cc1 (stereo in doubt) [Example 2, (+)-(1RS,2SR,5RS)-2-[(4-Oxo-1,2,3-benzotriazin-3(4H)-yl)methyl]-5-[4-(tetrahydro-2H-pyran-4-ylmethoxy)benzoyl]cyclopentanecarboxylic acid] | 0.071 | 0.071 | 99 | 7.33 | 89.5 |
| O=C(O)[C@@H]1[C@@H](Cn2nnc3ccccc3c2=O)CC[C@H]1C(=O)c1ccc(OCCC2CCOCC2)cc1 (single isomer, unassigned) [Example 5, (+)-(1RS,2SR,5RS)-2-[(4-Oxo-1,2,3-benzotriazin-3(4H)-yl)methyl]-5-{4-[2-(tetrahydro-2H-pyran-4-yl)ethoxy]benzoyl}cyclopentanecarboxylic acid] | 0.085 | 0.085 | 250 |  |  |
| O=C(O)[C@H]1[C@H](Cn2nnc3ccccc3c2=O)CC[C@@H]1C(=O)c1ccc(OCCC2CCOCC2)cc1 (stereo in doubt) [Example 4, (+/−)-(1RS,2SR,5RS)-2-[(4-Oxo-1,2,3-benzotriazin-3(4H)-yl)methyl]-5-{4-[2-(tetrahydro-2H-pyran-4-yl)ethoxy]benzoyl}cyclopentanecarboxylic acid] | 0.37 | 0.37 | 2700 |  |  |
| Cc1ccc2nnn(C[C@@H]3CC[C@H](C(=O)c4ccc(OCCC5CCOCC5)cc4)[C@H]3C(=O)O)c(=O)c2c1 (racemic) [Example 19, (+/−)-(1RS,2SR,5RS)-2-[(6-Methyl-4-oxo-1,2,3-benzotriazin-3(4H)-yl)methyl]-5-{4-[2-(letrahydro-2H-pyran-4-yl)ethoxy]benzoyl}cyclopentanecarboxylic acid] | 0.12 | 0.12 | 2700 |  |  |
| O=C(O)[C@@H]1[C@@H](Cn2nnc3ccc(C(F)(F)F)cc3c2=O)CC[C@H]1C(=O)c1ccc(OCCC2CCOCC2)cc1 (single isomer, unassigned) [Example 11, (+)-(1RS,2SR,5RS)-2-{[4-Oxo-6-(trifluoromethyl)-1,2,3-benzotriazin-3(4H)-yl]methyl}-5-{4-[2-(tetrahydro-2H-pyran-4-yl)ethoxy]benzoyl}cyclopentanecarboxylic acid] | 0.19 | 0.19 | 1200 |  |  |
| O=C(O)[C@H]1[C@H](Cn2nnc3ccc(C(F)(F)F)cc3c2=O)CC[C@@H]1C(=O)c1ccc(OCC2CCOCC2)cc1 (racemic) [Example 7, (+/−)-(1RS,2SR,5RS)-2-{[4-Oxo-6-(trifluoromethyl)-1,2,3-benzotriazin-3(4H)-yl]methyl}-5-[4-(tetrahydro-2H-pyran-4-ylmethoxy)benzoyl]cyclopentanecarboxylic acid] |  | 0.031 | 170 |  |  |
| (+)-(1RS,2SR,5RS)-2-{[4-Oxo-6-(trifluoromethyl)-1,2,3-benzotriazin-3(4H)-yl]methyl}-5-[4-(tetra-hydro-2H-pyran-4-ylmethoxy)benzoyl]cyclopentanecarboxylic acid [Example 8] | 0.016 | 0.016 | 100 | 4.83 | 93.1 |
| Cc1ccc2nnn(C[C@H]3CC[C@@H](C(=O)c4ccc(OCCC5CCOCC5)cc4)[C@@H]3C(=O)O)c(=O)c2c1 (single isomer, unassigned) [Example 20, (+)-(1RS,2SR,5RS)-2-[(6-Methyl-4-oxo-1,2,3-benzotriazin-3(4H)-yl)methyl]-5-{4-[2-(tetrahydro-2H-pyran-4-yl)ethoxy]benzoyl}cyclopentanecarboxylic acid] | 0.053 | 0.053 | 1000 |  |  |
